What all share (format): biochemical
In one experiment the target is PLK4 (h) (Homo sapiens, UniProt O00444). Briefly: PLK-4 human kinase assay (SPA). Conditions: for IC50: read-out: PLK4 pIC50 (converted). The method, then:
(§1) The in vitro inhibition of a panel of kinases was assessed using either the scintillation proximity assay (SPA) as described by Cook, N. D. et al., Advances in Experimental Medicine and Biology (1991), 36; p. 525-528; or the Fluorescence Resonance Energy Transfer (FRET) technology as described by Rodems, S. M. et al., Assay Drug Develop. Technol. (2002), 1; p. 9-19.
(§2) In the SPA technology the activity of the kinase of interest is measured using an appropriate biotinylated substrate that is incubated with the aforementioned kinase protein in the presence of (^33P) radiolabeled ATP. (^33P) Phosporylation of the substrate is subsequently measured through binding of the phosphorylated substrate to streptavidine coated beads that are based on the scintillant poly(vinyl toluene) (PVT-Beads). The scintillation intensity is detected by imaging on Leadseeker.
(§3) All kinases are pre-diluted to a 10× working concentration prior to addition into the assay. The composition of the dilution buffer for each kinase is detailed below.
In a final reaction volume of 30 μl PLK4 (h) (19 μg/ml) is incubated with 50 mM Hepes pH 8.0, 10 mM MgCl2, 50 mM NaCl, 1 mM NaF, 1 mM DTT, 10 μM of peptide Biotin-RPRGQRDSSYYWE-OH, 1 μM ATP and 2 nM [γ-^33P-ATP] (6.0 μCi/ml). After incubation of 60 minutes at room temperature, the reaction is stopped by addition of 40 μl, of stop solution containing 8.7 mM EDTA, BSA 0.17%, 0.17% Triton X-100, 1.7 mg/ml SPA beads (GE-healthcare). The plate is centriguged and read for Scintillation imaging on Leadseeker.

The next experiment deals with AuroraB (h) (Homo sapiens, UniProt Q96GD4). Briefly: Aurora-B human kinase assay (SPA). The following applies: for IC50: read-out: AuroraB pIC50 (converted). The method, then: as §1, §2, §3
AuroraB (h), sequence (Q96GD4 whole entry): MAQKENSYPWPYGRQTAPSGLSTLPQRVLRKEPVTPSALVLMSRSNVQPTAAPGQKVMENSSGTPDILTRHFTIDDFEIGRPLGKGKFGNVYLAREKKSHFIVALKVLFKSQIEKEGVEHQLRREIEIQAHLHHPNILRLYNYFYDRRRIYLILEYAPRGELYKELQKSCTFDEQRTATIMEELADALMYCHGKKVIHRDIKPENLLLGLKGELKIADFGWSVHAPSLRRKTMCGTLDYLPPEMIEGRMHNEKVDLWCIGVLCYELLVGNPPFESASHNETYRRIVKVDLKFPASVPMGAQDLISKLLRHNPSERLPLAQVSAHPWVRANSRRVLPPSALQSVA
In a final reaction volume of 30 μl, AuroraB (h) (0.5 μg/ml) is incubated with 60 mM Hepes pH 7.5, 3 mM MgCl2, 3 mM MnCl2, 3 μM Na3VO4, 0.05 mg/ml PEG, 2 mM DTT, 3 μM Biotin-[…]-OH, 0.5 μM ATP and 2.2 nM [γ-^33P-ATP] (6.8 μCi/ml). After incubation of 60 minutes at room temperature, the reaction is stopped by addition of 40 μL of stop solution containing 8.7 mM EDTA, BSA 0.17%, 0.17% Triton X-100, 5 mg/ml SPA beads (GE-healthcare). The plate is centriguged and read for Scintillation imaging on Leadseeker.

In the next experiment the target is GSK3β (h) (Homo sapiens, UniProt P49841). Briefly: GSK-3β human kinase assay (SPA). The following applies: for IC50: read-out: GSK3B pIC50 (converted). The protocol:
as §1, §2, §3
In a final reaction volume of 30 μl, GSK3β (h) (1 μg/ml) is incubated with 25 mM Tris pH 7.4, 10 mM MgCl2, 1 mM DTT, 1 μM peptide Biotin-KRREILSRRPSYR-OH, 1 μM ATP and 2 nM [γ-^33P-ATP] (6.0 μCi/ml). After incubation of 60 minutes at room temperature, the reaction is stopped by addition of […] of stop solution containing 8.7 mM EDTA, BSA 0.17%, 0.17% Triton X-100, 6.25 mg/ml SPA beads (GE-healthcare). The plate is centriguged and read for Scintillation imaging on Leadseeker.

In another experiment the target is CDK1/CyclinB (h) (Homo sapiens, UniProt P06493). Briefly: CDK1/CyclinB human kinase assay (FRET). The following applies: for IC50: read-out: CDK1 pIC50 (converted). The method, then: as §1
CDK1/CyclinB (h), sequence (P06493 whole entry): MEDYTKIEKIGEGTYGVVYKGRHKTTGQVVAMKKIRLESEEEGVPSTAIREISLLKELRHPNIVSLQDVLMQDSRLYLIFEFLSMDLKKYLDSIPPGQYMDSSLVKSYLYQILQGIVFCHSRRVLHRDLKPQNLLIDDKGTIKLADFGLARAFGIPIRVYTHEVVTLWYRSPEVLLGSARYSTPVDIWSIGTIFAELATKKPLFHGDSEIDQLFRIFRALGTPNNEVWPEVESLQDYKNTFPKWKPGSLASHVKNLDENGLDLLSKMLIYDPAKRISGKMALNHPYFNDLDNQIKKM
CDK1/CyclinB (h), sequence (P14635 whole entry partner): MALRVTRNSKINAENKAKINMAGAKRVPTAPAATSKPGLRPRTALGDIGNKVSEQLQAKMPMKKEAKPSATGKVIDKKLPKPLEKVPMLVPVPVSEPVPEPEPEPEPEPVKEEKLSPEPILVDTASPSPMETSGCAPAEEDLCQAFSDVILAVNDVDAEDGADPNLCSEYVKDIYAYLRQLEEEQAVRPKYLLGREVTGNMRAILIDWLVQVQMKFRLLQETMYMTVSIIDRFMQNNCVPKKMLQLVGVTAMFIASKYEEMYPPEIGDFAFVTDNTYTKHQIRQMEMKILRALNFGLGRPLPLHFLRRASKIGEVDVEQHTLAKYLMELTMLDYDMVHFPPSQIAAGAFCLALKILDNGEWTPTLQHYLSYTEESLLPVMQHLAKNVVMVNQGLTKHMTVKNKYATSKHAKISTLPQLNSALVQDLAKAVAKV
In the FRET technology the activity of the kinase of interest is measured using an appropriate substrate that is labeled with two fluorophores (coumarin and fluorescein). Phosphorylation is determined using a developing reagent comprising a protease that recognizes and cleaves nonphosphorylated peptides. Cleavage will disturb the FRET between the fluorescein and coumarin on the peptide. Uncleaved, phosphorylated peptides maintain the FRET signal. A ratiometric readout of the donor emission over the acceptor emission quantitates the reaction process.
as §3
In a final reaction volume of 10 μl, CDK1/CyclinB (h) (0.2 μg/ml) is incubated with 50 mM Hepes pH 7.5, 10 mM MgCl2, 1 mM EGTA, 0.01% Brij-35, 2 μM Z'lyte Ser/Thr peptide 12 and 10 μM ATP (Invitrogen's FRET assay). After incubation of 60 minutes at room temperature, the reaction is stopped by addition of 5 μL development reagent containing protease mix. After 60 minutes room temperature the development reaction is stopped by adding 5 μl stop solution. The plate is then read in fluorescence plate reader with excitation: 390 nm and dual emission: 460 and 538 nm. Emission ratio is determined to the formula=Emission signal intensity at 460 nm/Emission signal intensity at 538 nm.

Values joined by “and” are separate entries in the source; they are usually repeats but may differ in a detail not shown here. Equal entries are not always repeated.

GSK3β (h), sequence (P49841 whole entry): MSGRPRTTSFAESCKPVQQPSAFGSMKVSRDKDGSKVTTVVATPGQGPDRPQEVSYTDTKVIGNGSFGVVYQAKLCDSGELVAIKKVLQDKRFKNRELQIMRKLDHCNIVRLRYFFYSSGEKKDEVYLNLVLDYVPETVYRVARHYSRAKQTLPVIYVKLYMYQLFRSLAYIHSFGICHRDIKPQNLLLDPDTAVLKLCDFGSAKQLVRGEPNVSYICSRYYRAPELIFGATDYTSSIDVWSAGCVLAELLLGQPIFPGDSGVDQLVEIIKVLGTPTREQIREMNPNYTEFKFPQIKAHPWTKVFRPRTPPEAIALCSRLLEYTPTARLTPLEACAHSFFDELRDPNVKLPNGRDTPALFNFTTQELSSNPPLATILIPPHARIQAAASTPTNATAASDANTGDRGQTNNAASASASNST
PLK4 (h), sequence (O00444 whole entry): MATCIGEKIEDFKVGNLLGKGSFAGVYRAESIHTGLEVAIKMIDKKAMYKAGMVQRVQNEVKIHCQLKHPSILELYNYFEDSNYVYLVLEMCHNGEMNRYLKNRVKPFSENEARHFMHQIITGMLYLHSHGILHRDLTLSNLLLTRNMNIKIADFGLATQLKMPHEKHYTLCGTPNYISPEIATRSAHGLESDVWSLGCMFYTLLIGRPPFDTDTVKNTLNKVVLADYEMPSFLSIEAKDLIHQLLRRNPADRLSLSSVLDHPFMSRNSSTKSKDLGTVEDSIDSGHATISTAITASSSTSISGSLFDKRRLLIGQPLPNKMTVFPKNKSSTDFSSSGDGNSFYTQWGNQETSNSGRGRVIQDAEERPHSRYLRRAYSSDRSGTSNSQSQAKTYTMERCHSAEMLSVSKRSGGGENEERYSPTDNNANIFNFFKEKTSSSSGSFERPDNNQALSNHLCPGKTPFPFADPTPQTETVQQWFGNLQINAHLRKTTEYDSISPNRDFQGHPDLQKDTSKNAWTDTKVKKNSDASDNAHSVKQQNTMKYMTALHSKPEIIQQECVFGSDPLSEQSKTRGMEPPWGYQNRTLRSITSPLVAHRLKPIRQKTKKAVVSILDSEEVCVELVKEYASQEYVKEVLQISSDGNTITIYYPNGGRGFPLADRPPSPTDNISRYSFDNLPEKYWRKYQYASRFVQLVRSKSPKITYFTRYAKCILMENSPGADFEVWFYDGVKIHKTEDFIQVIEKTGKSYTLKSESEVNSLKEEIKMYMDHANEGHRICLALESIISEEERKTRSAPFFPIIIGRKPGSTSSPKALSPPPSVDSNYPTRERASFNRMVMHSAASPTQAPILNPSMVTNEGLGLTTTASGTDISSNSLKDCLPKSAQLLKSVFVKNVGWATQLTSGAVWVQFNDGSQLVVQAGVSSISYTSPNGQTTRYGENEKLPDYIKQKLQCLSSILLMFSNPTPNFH

With `CN1CCCNc2ncnc3c2C(=CNc2ccc(Cl)c(c2)OCCCC1=O)C(=O)N3` (mixture of isomers) [Compound 63], on PLK4 (h), the “PLK4 pIC50” value was 6.52. Moreover, the “AuroraB pIC50” value on AuroraB (h) came to 7.01. The “GSK3B pIC50” value on GSK3β (h) is 7.68. At CDK1/CyclinB (h), the “CDK1 pIC50” value was found to be 6.1.
On the same counts, the results for `COc1ccc2cc1CN(C)CCCCCCC(=O)N(C)CCCNc1ncnc3c1C(=CN2)C(=O)N3` (mixture of isomers) [Compound 68] are 5.74, <5, 5.04 and <5.
Regarding `CN1CCCNc2ncnc3c2C(=CNc2cccc(c2)OCCCCC1=O)C(=O)N3` (mixture of isomers) [Compound 70], the “PLK4 pIC50” value on PLK4 (h) is given as 6.75. The “AuroraB pIC50” value on AuroraB (h) worked out at 6.8. Also, on GSK3β (h), the “GSK3B pIC50” value came to 7.28. Further, the “CDK1 pIC50” value at CDK1/CyclinB (h) amounted to 5.61.
In the case of `CN1CCCNc2ncnc3c2C(=CNc2cccc(c2)OCCCCCC1=O)C(=O)N3` (mixture of isomers) [Compound 71], the “PLK4 pIC50” value on PLK4 (h) is reported as 6.7. Moreover, on AuroraB (h), the “AuroraB pIC50” value is on record as 6.15. Moreover, the “GSK3B pIC50” value on GSK3β (h) came out at 7.21. Besides, the “CDK1 pIC50” value on CDK1/CyclinB (h) came out at 5.56.
For `COc1ccc2cc1OCCCCCCC(=O)N(C)CCNc1ncnc3c1C(=CN2)C(=O)N3` (mixture of isomers) [Compound 76], in that order: 5.72, 6.28, 6.54 and <5.
For `CN1CCCN(C)c2ncnc3c2C(=CNc2ccc(Cl)c(c2)OCCCC1=O)C(=O)N3` (mixture of isomers) [Compound 86], in that order: 5.9, 5.47, 6.42 and <5.
On the same counts, the results for `COc1ccc2cc1CN(C)CCCCC(=O)N(C)CCCN(C)c1ncnc3c1C(=CN2)C(=O)N3` (mixture of isomers) [Compound 87] are <5, <5, 6.17 and <5.
With `CN1CCCN(C)c2ncnc3c2C(=CNc2cccc(c2)OCCCC1=O)C(=O)N3` (mixture of isomers) [Compound 88], on PLK4 (h), the “PLK4 pIC50” value was 5.85. Besides, on AuroraB (h), the “AuroraB pIC50” value amounted to 5.33. For the same compound, the “GSK3B pIC50” value at GSK3β (h) was 6.26. The “CDK1 pIC50” value on CDK1/CyclinB (h) is <5.
On the same counts, the results for `COc1ccc2cc1CN(C)CCCCCC(=O)N(C)CCCN(C)c1ncnc3c1C(=CN2)C(=O)N3` (mixture of isomers) [Compound 89] are <5, <5, <5 and <5.
For `CN1CC(=O)N2CCN(CC2)c2cccc3c2/C(=C/Nc2cccc(c2)S1(=O)=O)C(=O)N3` [Compound 2], the IC50 on PLK4 (h) is 4570 nM; on AuroraB (h), > 10000 nM; on GSK3β (h), 1170 nM; on CDK1/CyclinB (h), 5620 nM.
On the same counts, the results for `COc1cc2cc(c1OC)CN(C)CCCC(=O)N(C)CCCNc1ncnc3c1/C(=C/N2)C(=O)N3` [Compound 6] are 6170 nM, > 10000 nM, > 10000 nM and ~10000 nM.
As for `CN1CCCC(=O)N(C)CCCNc2ncnc3c2/C(=C/Nc2ccc(N4CCOCC4)c(c2)C1)C(=O)N3` [Compound 7], the IC50 is 759 nM at PLK4 (h), > 10000 nM at AuroraB (h), 74.1 nM at GSK3β (h) and 1700 nM at CDK1/CyclinB (h).
In the case of `CN1CCNc2ncnc3c2/C(=C/Nc2ccc(N4CCOCC4)c(c2)OCCCC1=O)C(=O)N3` [Compound 8], the IC50 on PLK4 (h), on AuroraB (h), on GSK3β (h) and at CDK1/CyclinB (h) was > 10000 nM in each case.
For the compound `CN1CCC(=O)NCC#Cc2cccc3c2/C(=C/Nc2cccc(c2)S(=O)(=O)N(C)CC1=O)C(=O)N3` [Compound 21], the IC50 is 1860 nM at PLK4 (h), > 10000 nM at AuroraB (h), 4680 nM on GSK3β (h) and > 10000 nM on CDK1/CyclinB (h).
For `N#Cc1ccc2cc1OCCCCC(=O)N1CCN(CC1)c1ncnc3c1/C(=C/N2)C(=O)N3` [Compound 26], the IC50 at PLK4 (h) is > 10000 nM; at AuroraB (h), > 10000 nM; on GSK3β (h) it was 2630 nM; at CDK1/CyclinB (h), > 10000 nM.
`CN1CCNc2ncnc3c2/C(=C/Nc2ccc(Cl)c(c2)OCCCCC1=O)C(=O)N3` [Compound 56]: the IC50 is 3470 nM on PLK4 (h); 759 nM on AuroraB (h); 166 nM at GSK3β (h); ~6760 nM and 6760 nM on CDK1/CyclinB (h).
On to `CN1CCNc2ncnc3c2/C(=C/Nc2ccc(Cl)c(c2)OCCCCCC1=O)C(=O)N3` [Compound 57], for which the IC50 at PLK4 (h) was 4790 nM; at AuroraB (h), 1070 nM; at GSK3β (h), 263 nM; at CDK1/CyclinB (h), > 10000 nM.
On the same counts, the results for `CN1CCNc2ncnc3c2/C(=C/Nc2cccc(c2)OCCCCCCC1=O)C(=O)N3` [Compound 59] are 4370 nM, 5130 nM, 1050 nM and > 10000 nM.
Turning to `CN1CCNc2ncnc3c2/C(=C/Nc2ccc(Cl)c(c2)OCCCC1=O)C(=O)N3` [Compound 60], the IC50 on PLK4 (h) was 1740 nM; at AuroraB (h) it was 891 nM; at GSK3β (h), 263 nM; on CDK1/CyclinB (h) it was 229 nM.
For `CN1CCCNc2ncnc3c2/C(=C/Nc2ccc(Cl)c(c2)OCCCCCC1=O)C(=O)N3` [Compound 64], in that order: 2140 nM, 794 nM, 42.7 nM and > 10000 nM.
Turning to `CN1CCCNc2ncnc3c2/C(=C/Nc2ccc(Cl)c(c2)OCCCCCCC1=O)C(=O)N3` [Compound 65], the IC50 on PLK4 (h) was 8910 nM; at AuroraB (h), > 10000 nM; at GSK3β (h), 1380 nM; on CDK1/CyclinB (h), > 10000 nM.
Consider `COc1ccc2cc1OCCCCCC(=O)N(C)CCCNc1ncnc3c1/C(=C/N2)C(=O)N3` [Compound 66], for which the IC50 was 479 nM at PLK4 (h), 347 nM on AuroraB (h), 77.6 nM at GSK3β (h) and 2340 nM at CDK1/CyclinB (h).
For `COc1ccc2cc1CN(C)CCCCC(=O)N(C)CCCNc1ncnc3c1/C(=C/N2)C(=O)N3` [Compound 67], in that order: 5620 nM, > 10000 nM, 178 nM and 603 nM.
For `COc1ccc2cc1OCCCCCCC(=O)N(C)CCCNc1ncnc3c1/C(=C/N2)C(=O)N3` [Compound 72], in that order: 1450 nM, 1910 nM, 575 nM and > 10000 nM.
`CN1CCCC(=O)N(C)CCCNc2ncnc3c2/C(=C/Nc2cccc(c2)C1)C(=O)N3` [Compound 73]: the IC50 at PLK4 (h) was 3720 nM; at AuroraB (h) it was > 10000 nM; at GSK3β (h), 851 nM; on CDK1/CyclinB (h) it was 1780 nM.

The record behind these values is patent publication US8338422B2, “Indolin-2-ones and aza-indolin-2-ones” (Janssen Pharmaceutica NV, priority 2007, dated 2012).
